# Measurements: ChEMBL document CHEMBL3885881, “DrugMatrix”
# Organism: Rattus norvegicus
# Assay: DrugMatrix - Regimen: Daily Repeat
# Assay type: toxicity, organism-based, Sprague-Dawley
# Design: regimen Daily Repeat, gender Male, age 6-8 weeks
# Details: in vivo, po, route oral GAVAGE, […]; for ABSOLUTE BASOPHIL / ABSOLUTE EOSINOPHIL / ABSOLUTE LYMPHOCYTE / ABSOLUTE MONOCYTE / ABSOLUTE SEGMENTED NEUTROPHIL / BASOPHIL / EOSINOPHIL / ERYTHROCYTE COUNT / HEMATOCRIT / HEMOGLOBIN / LEUKOCYTE COUNT / LYMPHOCYTE / MEAN CORPUSCULAR HEMOGLOBIN / MEAN CORPUSCULAR HEMOGLOBIN CONCENTRATION / MEAN CORPUSCULAR VOLUME / MONOCYTE / NEUTROPHIL / NUCLEATED RED BLOOD CELLS / PLATELET COUNT: tissue Blood; for ALANINE AMINOTRANSFERASE / ALBUMIN / ALKALINE PHOSPHATASE / ASPARTATE AMINOTRANSFERASE / BLOOD UREA NITROGEN / CARBON DIOXIDE / CHLORIDE / CHOLESTEROL / CREATINE PHOSPHOKINASE / CREATININE / GLUCOSE / LACTATE DEHYDROGENASE / LIPASE / PHOSPHORUS / POTASSIUM / SODIUM / TOTAL BILIRUBIN / TOTAL PROTEIN / URIC ACID: tissue Plasma
# [1] = 0 mg/kg, 72 h, dose level Control, time 3 day
# [2] = 0 mg/kg, 120 h, dose level Control, time 5 day
# [3] = 0 mg/kg, dose level Control, time 28 day
# [4] = 20 mg/kg, 72 h, dose level Low, time 3 day
compound,measurement,setting,value
CCCCCCCCCc1ccc(O)cc1 [4-NONYLPHENOL],ABSOLUTE BASOPHIL,[1],0 CELLS/uL
same,ABSOLUTE EOSINOPHIL,[1],0 CELLS/uL
same,ABSOLUTE LYMPHOCYTE,[1],11091.17 CELLS/uL
same,ABSOLUTE MONOCYTE,[1],172.17 CELLS/uL
same,ABSOLUTE SEGMENTED NEUTROPHIL,[1],1186.67 CELLS/uL
same,BASOPHIL,[1],0%
same,EOSINOPHIL,[1],0%
same,ERYTHROCYTE COUNT,[1],5.87 x10E6/uL
same,HEMATOCRIT,[1],36.87%
same,HEMOGLOBIN,[1],14.03 G/DL
same,LEUKOCYTE COUNT,[1],12.45 x10E3/uL
same,LYMPHOCYTE,[1],88.67%
same,MEAN CORPUSCULAR HEMOGLOBIN,[1],23.93 pg
same,MEAN CORPUSCULAR HEMOGLOBIN CONCENTRATION,[1],38.1 G/DL
same,MEAN CORPUSCULAR VOLUME,[1],62.73 fL
same,MONOCYTE,[1],1.5%
same,NEUTROPHIL,[1],9.83%
same,NUCLEATED RED BLOOD CELLS,[1],0 /100WBC
same,PLATELET COUNT,[1],1150.33 x10E3/uL
same,ALANINE AMINOTRANSFERASE,[1],67.17 u/L
same,ALBUMIN,[1],4.03 G/DL
same,ALKALINE PHOSPHATASE,[1],462.5 u/L
same,ASPARTATE AMINOTRANSFERASE,[1],88 u/L
same,BLOOD UREA NITROGEN,[1],13.17 mg/dL
same,CARBON DIOXIDE,[1],29.33 mmol/L
same,CHLORIDE,[1],101 MEQ/L
same,CHOLESTEROL,[1],69.17 mg/dL
same,CREATINE PHOSPHOKINASE,[1],292.5 u/L
same,CREATININE,[1],0.17 mg/dL
same,GLUCOSE,[1],167.5 mg/dL
same,LACTATE DEHYDROGENASE,[1],198.5 u/L
same,LIPASE,[1],10.67 u/L
same,PHOSPHORUS,[1],11.73 mg/dL
same,POTASSIUM,[1],5.91 MEQ/L
same,SODIUM,[1],143.3 MEQ/L
same,TOTAL BILIRUBIN,[1],0.18 mg/dL
same,TOTAL PROTEIN,[1],5.7 G/DL
same,URIC ACID,[1],1.3 mg/dL
same,ABSOLUTE BASOPHIL,[2],0 CELLS/uL
same,ABSOLUTE EOSINOPHIL,[2],64.33 CELLS/uL
same,ABSOLUTE LYMPHOCYTE,[2],12494.67 CELLS/uL
same,ABSOLUTE MONOCYTE,[2],117 CELLS/uL
same,ABSOLUTE SEGMENTED NEUTROPHIL,[2],1340.67 CELLS/uL
same,NUCLEATED RED BLOOD CELLS,[2],0 /100WBC
same,CARBON DIOXIDE,[2],29.17 mmol/L
same,LACTATE DEHYDROGENASE,[2],229.17 u/L
same,LIPASE,[2],10.83 u/L
same,URIC ACID,[2],1.55 mg/dL
same,BASOPHIL,[3],0.42%
same,EOSINOPHIL,[3],0.58%
same,ERYTHROCYTE COUNT,[3],8.06 x10E6/uL
same,HEMATOCRIT,[3],48.44%
same,HEMOGLOBIN,[3],16.34 G/DL
same,LEUKOCYTE COUNT,[3],13.04 x10E3/uL
same,LYMPHOCYTE,[3],85.12%
same,MEAN CORPUSCULAR HEMOGLOBIN,[3],20.26 pg
same,MEAN CORPUSCULAR HEMOGLOBIN CONCENTRATION,[3],33.74 G/DL
same,MEAN CORPUSCULAR VOLUME,[3],60.1 fL
same,MONOCYTE,[3],1.44%
same,NEUTROPHIL,[3],11.28%
same,PLATELET COUNT,[3],1226 x10E3/uL
same,ALANINE AMINOTRANSFERASE,[3],28.6 u/L
same,ALBUMIN,[3],3.94 G/DL
same,ALKALINE PHOSPHATASE,[3],254.6 u/L
same,ASPARTATE AMINOTRANSFERASE,[3],67.8 u/L
same,BLOOD UREA NITROGEN,[3],10.4 mg/dL
same,CHLORIDE,[3],104.6 MEQ/L
same,CHOLESTEROL,[3],57.6 mg/dL
same,CREATINE PHOSPHOKINASE,[3],224.8 u/L
same,CREATININE,[3],0.4 mg/dL
same,GLUCOSE,[3],140.6 mg/dL
same,PHOSPHORUS,[3],10.66 mg/dL
same,POTASSIUM,[3],6.58 MEQ/L
same,SODIUM,[3],148.6 MEQ/L
same,TOTAL BILIRUBIN,[3],0.24 mg/dL
same,TOTAL PROTEIN,[3],6.64 G/DL
same,ABSOLUTE BASOPHIL,[4],0 CELLS/uL
same,ABSOLUTE EOSINOPHIL,[4],45.67 CELLS/uL
same,ABSOLUTE LYMPHOCYTE,[4],11853.67 CELLS/uL
same,ABSOLUTE MONOCYTE,[4],45.67 CELLS/uL
same,ABSOLUTE SEGMENTED NEUTROPHIL,[4],988.33 CELLS/uL
same,BASOPHIL,[4],0%
same,EOSINOPHIL,[4],0.33%
same,ERYTHROCYTE COUNT,[4],5.99 x10E6/uL
same,HEMATOCRIT,[4],37.03%
same,HEMOGLOBIN,[4],14.3 G/DL
same,LEUKOCYTE COUNT,[4],12.93 x10E3/uL
same,LYMPHOCYTE,[4],91.67%
same,MEAN CORPUSCULAR HEMOGLOBIN,[4],23.9 pg
same,MEAN CORPUSCULAR HEMOGLOBIN CONCENTRATION,[4],38.6 G/DL
same,MEAN CORPUSCULAR VOLUME,[4],61.9 fL
same,MONOCYTE,[4],0.33%
same,NEUTROPHIL,[4],7.67%
same,NUCLEATED RED BLOOD CELLS,[4],0 /100WBC
same,PLATELET COUNT,[4],1126 x10E3/uL
same,ALANINE AMINOTRANSFERASE,[4],75.33 u/L
same,ALBUMIN,[4],3.8 G/DL
same,ALKALINE PHOSPHATASE,[4],451.33 u/L
same,ASPARTATE AMINOTRANSFERASE,[4],100 u/L
same,BLOOD UREA NITROGEN,[4],13 mg/dL
same,CARBON DIOXIDE,[4],24.67 mmol/L
same,CHLORIDE,[4],102.67 MEQ/L
same,CHOLESTEROL,[4],62.67 mg/dL
same,CREATINE PHOSPHOKINASE,[4],371 u/L
same,CREATININE,[4],0.19 mg/dL
same,GLUCOSE,[4],168.67 mg/dL
same,LACTATE DEHYDROGENASE,[4],255.33 u/L
same,LIPASE,[4],9.67 u/L
same,PHOSPHORUS,[4],11.97 mg/dL
same,POTASSIUM,[4],5.3 MEQ/L
same,SODIUM,[4],143.8 MEQ/L
same,TOTAL BILIRUBIN,[4],0.2 mg/dL
same,TOTAL PROTEIN,[4],5.33 G/DL
same,URIC ACID,[4],1.77 mg/dL
